From patent publication US20230407243A1, “GENETIC PLATFORM TO INVESTIGATE THE FUNCTIONS OF BACTERIAL DRUG EFFLUX PUMPS” (priority 2022, published 2023)
Where two headings read alike, the source gives them in different places.

Assays:
Format in all cases: cell-based, Escherichia coli
[1] = test system: EKO-35-Pore; experiment: MIC susceptibility profiling, porinated strain; conditions: for Fold changes of MICs: EKO-35-Pore compared to EKO-35-Pore (reference); for Minimum inhibitory concentration (MIC), Pore EKO-35 / Minimum inhibitory concentration, EKO-35-Pore / MIC: technical duplicate; for MIC: Escherichia coli
Method in brief: (§1)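 Strains carry the fhuA ΔC/Δ4L pore integrated between glmS and pstS under a constitutive promoter, with pore activity checked by vancomycin susceptibility. Overnight LB cultures were adjusted in PBS pH 7.4 to OD600 ~1.0 and diluted 1/2000 into MHB II. 2-fold compound titrations were read by OD600 after 18 h at 37 °C.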

[2] = test system: EKO-35 araC::acrB Pore; experiment: MIC susceptibility profiling, porinated efflux platform; conditions: for Fold changes of MICs: EKO-35 araC::acr-B Pore compared to EKO-35-Pore
Method in brief: as §1

[3] = test system: EKO-35 araC::acrBD408A Pore; experiment: as above; conditions: for Fold changes of MICs: EKO-35 araC::acrBD408A Pore compared to EKO-35-Pore; for Minimum inhibitory concentration / MIC: EKO-35 araC::acrBD408A Pore, technical duplicate; for MIC: Escherichia coli, read-out: Minimum inhibitory concentration
Method in brief: as §1

[4] = test system: EKO-35 araC::acrD Pore; experiment: as above; conditions: for Fold changes of MICs: EKO-35 araC::acrD Pore compared to EKO-35-Pore
Method in brief: as §1

[5] = test system: EKO-35 araC::emrAB Pore; experiment: as above; conditions: for Fold changes of MICs: EKO-35 araC::emrAB Pore compared to EKO-35-Pore; for Minimum inhibitory concentration / MIC: EKO-35 araC::emrAB Pore, technical duplicate; for MIC: Escherichia coli, read-out: Minimum inhibitory concentration
Method in brief: as §1

[6] = test system: EKO-35 araC::mdtBC Pore; experiment: as above; conditions: for Fold changes of MICs: EKO-35 araC::mdtBC Pore compared to EKO-35-Pore; for Minimum inhibitory concentration / MIC: EKO-35 araC::mdtBC Pore, technical duplicate; for MIC: Escherichia coli, read-out: Minimum inhibitory concentration
Method in brief: as §1

[7] = test system: EKO-35 araC::mexCD Pore; experiment: as above; conditions: for Fold changes of MICs: EKO-35 araC::mexCD Pore compared to EKO-35-Pore; for Minimum inhibitory concentration / MIC: EKO-35 araC::mexCD Pore, technical duplicate; for MIC: Escherichia coli, read-out: Minimum inhibitory concentration
Method in brief: as §1

[8] = Table 14A, porinated, technical duplicate
[9] = Table 10, with pore, read-out: Minimum inhibitory concentration (MIC), Pore EKO-35
[10] = Table 14A, porinated, read-out: Minimum inhibitory concentration, EKO-35-Pore

`N#CC(=NNc1ccc(F)c(Cl)c1)C(=O)c1ccc(Cl)cc1` [compound 15] was tested, and the “Fold changes of MICs” value [1] was 1 fold, the “Minimum inhibitory concentration (MIC), Pore EKO-35” value ([1]; Table 10, with pore) was 320 µg/mL and the “Minimum inhibitory concentration, EKO-35-Pore” value ([1]; Table 14A, porinated) was 320 µg/mL. For the same molecule, the “Fold changes of MICs” value [2] was 1 fold, the “Minimum inhibitory concentration, EKO-35 araC::acrB Pore” value [2, 8] was 320 µg/mL and the “Fold changes of MICs” value [3] was 1 fold. The Minimum inhibitory concentration [3] was 320 µg/mL, the “Fold changes of MICs” value [4] was 1 fold and the “Minimum inhibitory concentration, EKO-35 araC::acrD Pore” value [4, 8] was 320 µg/mL. The “Fold changes of MICs” value [5] was 1 fold, the Minimum inhibitory concentration [5] was 320 µg/mL and the “Fold changes of MICs” value [6] was 1 fold. For the same molecule, the Minimum inhibitory concentration [6] was 320 µg/mL, the “Fold changes of MICs” value [7] was 1 fold and the Minimum inhibitory concentration [7] was 320 µg/mL.
For `CC(C)c1ccc(C=C(C#N)c2nc3ccccc3[nH]2)cc1` [compound 12], the “Fold changes of MICs” value [1] was 1 fold, the “Minimum inhibitory concentration (MIC), Pore EKO-35” value ([1]; Table 10, with pore) was 160 µg/mL and the “Minimum inhibitory concentration, EKO-35-Pore” value ([1]; Table 14A, porinated) was 160 µg/mL. The “Fold changes of MICs” value [2] was 2 fold, the “Minimum inhibitory concentration, EKO-35 araC::acrB Pore” value [2, 8] was 320 µg/mL and the “Fold changes of MICs” value [3] was 2 fold. For the same molecule, the Minimum inhibitory concentration [3] was 320 µg/mL, the “Fold changes of MICs” value [4] was 1 fold and the “Minimum inhibitory concentration, EKO-35 araC::acrD Pore” value [4, 8] was 160 µg/mL. The “Fold changes of MICs” value [5] was 2 fold, the Minimum inhibitory concentration [5] was 320 µg/mL and the “Fold changes of MICs” value [6] was 2 fold. For the same molecule, the Minimum inhibitory concentration [6] was 320 µg/mL, the “Fold changes of MICs” value [7] was 2 fold and the Minimum inhibitory concentration [7] was 320 µg/mL.
In the case of `COC(=O)c1sc(N2CCCC2)c(C#N)c1-c1cccs1` [compound 10], the “Fold changes of MICs” value [1] is reported as 1 fold, the “Minimum inhibitory concentration (MIC), Pore EKO-35” value ([1]; Table 10, with pore) is reported as 10 µg/mL and the “Minimum inhibitory concentration, EKO-35-Pore” value ([1]; Table 14A, porinated) is reported as 10 µg/mL. The “efflux pump-mediated resistance vs EKO-35-Pore” value ([2]; AcrB with the pore) was “increased resistance”, the “Fold changes of MICs” value [2] was 16 fold and the “Minimum inhibitory concentration, EKO-35 araC::acrB Pore” value [2, 8] was 160 µg/mL. For the same molecule, the “Fold changes of MICs” value [3] was 1 fold, the Minimum inhibitory concentration [3] was 10 µg/mL and the “Fold changes of MICs” value [4] was 16 fold. For the same molecule, the “Minimum inhibitory concentration, EKO-35 araC::acrD Pore” value [4, 8] was 160 µg/mL, the “Fold changes of MICs” value [5] was 16 fold and the Minimum inhibitory concentration [5] was 160 µg/mL. The “efflux pump-mediated resistance vs EKO-35-Pore” value ([5]; EmrAB, porinated strain) was “associated with resistance”, the “Fold changes of MICs” value [6] was 1 fold and the Minimum inhibitory concentration [6] was 10 µg/mL. The “Fold changes of MICs” value [7] was 16 fold, the Minimum inhibitory concentration [7] was 160 µg/mL and the “efflux pump-mediated resistance vs EKO-35-Pore” value ([7]; MexCD, OM compromised) was “increased resistance”.
In the case of `CCn1cc(C(=O)O)c(=O)c2ccc(C)nc21` [nalidixic acid], the “Fold changes of MICs” value [1] is reported as 1 fold, the MIC [1, 9] is reported as 1.25 µg/mL and the MIC [1, 10] is reported as 1.25 µg/mL. The “Fold changes of MICs” value [2] was 8 fold, the MIC ([2]; Escherichia coli, Table 14A, porinated, technical duplicate, read-out: Minimum inhibitory concentration, EKO-35 araC::acrB Pore) was 10 µg/mL and the “Fold changes of MICs” value [3] was 1 fold. The MIC [3] was 1.25 µg/mL, the “Fold changes of MICs” value [4] was 1 fold and the MIC ([4]; Escherichia coli, Table 14A, porinated, technical duplicate, read-out: Minimum inhibitory concentration, EKO-35 araC::acrD Pore) was 1.25 µg/mL. The “Fold changes of MICs” value [5] was 8 fold, the MIC [5] was 10 µg/mL and the “Fold changes of MICs” value [6] was 1 fold. For the same molecule, the MIC [6] was 1.25 µg/mL, the “Fold changes of MICs” value [7] was 2 fold and the MIC [7] was 2.5 µg/mL.
For `CCCCCCCCCCCCOS(=O)(=O)[O-].[Na+]` [SDS, sodium dodecyl sulphate], the “Fold changes of MICs” value [1] was 1 fold, the MIC [1, 9] was 31.2 µg/mL and the MIC [1, 10] was 31.2 µg/mL. The “Fold changes of MICs” value [2] was 32 fold, the “Fold changes of MICs” value [3] was 1 fold and the MIC [3] was 31.2 µg/mL. The “Fold changes of MICs” value [4] was 32 fold, the “Fold changes of MICs” value [5] was 4 fold and the MIC [5] was 125 µg/mL. The “Fold changes of MICs” value [6] was 1 fold, the MIC [6] was 31.2 µg/mL and the “Fold changes of MICs” value [7] was 4 fold. For the same molecule, the MIC [7] was 125 µg/mL.
In the case of `C[n+]1c2cc(N)ccc2cc2ccc(N)cc21.[Cl-]` [acriflavine], the “Fold changes of MICs” value [1] is reported as 1 fold, the “Minimum inhibitory concentration (MIC), Pore EKO-35” value ([1]; Table 10, with pore) is reported as 0.098 µg/mL and the “Minimum inhibitory concentration, EKO-35-Pore” value ([1]; Table 14A, porinated) is reported as 0.098 µg/mL. The “Fold changes of MICs” value [2] was 16 fold, the “Minimum inhibitory concentration, EKO-35 araC::acrB Pore” value [2, 8] was 1.563 µg/mL and the “Fold changes of MICs” value [3] was 1 fold. For the same molecule, the Minimum inhibitory concentration [3] was 0.098 µg/mL, the “Fold changes of MICs” value [4] was 2 fold and the “Minimum inhibitory concentration, EKO-35 araC::acrD Pore” value [4, 8] was 0.195 µg/mL. The “Fold changes of MICs” value [5] was 2 fold, the Minimum inhibitory concentration [5] was 0.195 µg/mL and the “Fold changes of MICs” value [6] was 1 fold. For the same molecule, the Minimum inhibitory concentration [6] was 0.098 µg/mL, the “Fold changes of MICs” value [7] was 4 fold and the Minimum inhibitory concentration [7] was 0.391 µg/mL.
